The source of these data is patent US9975874B2, “Factor XIa inhibitors” (Merck Sharp & Dohme Corp., priority 2014, dated 2018).

The target in assay [1] is purified Human plasma kallikrein (Homo sapiens (Human), UniProt P03952). Description: Kallikrein Assay. The class given is biochemical. To be noted: Plasma kallikrein; substrate Acetyl-K-P-R-AFC, 0.5 nM enzyme, pH 7.4; read-out: PK IC50. The procedure:
(§1) The effectiveness of a compound of the present invention as an inhibitor of Kallikrein can be determined using a relevant purified serine protease, and an appropriate synthetic substrate. The rate of hydrolysis of the chromogenic or fluorogenic substrate by the relevant serine protease was measured both in the absence and presence of compounds of the present invention. Assays were conducted at room temperature or at 37° C. […] A decrease in the rate of fluorescence change in the presence of inhibitor is indicative of enzyme inhibition. Such methods are known to one skilled in the art. The results of this assay are expressed as the inhibitory constant, Ki.
Kallikrein determinations were made in 50 mM HEPES buffer at pH 7.4 containing 150 mM NaCl, 5 mM CaCl2, and 0.1% PEG 8000 (polyethylene glycol; Fisher Scientific). Determinations were made using purified Human plasma kallikrein at a final concentration of 0.5 nM (Enzyme Research Laboratories) and the synthetic substrate, Acetyl-K-P-R-AFC (Sigma # C6608) at a concentration of […].
Times required to achieve equilibration between enzyme and inhibitor were determined in control experiments. The reactions were performed under linear progress curve conditions and fluorescence increase measured at 405 Ex/510 Em nm. […] IC50 was determined by inflection point from a four parameter logistic curve fit. Ki was calculated using the Cheng Prusoff equation, Ki=IC50/(1+([S]/Km)).

Assay [2] addresses purified human Factor XIa (Homo sapiens (Human), UniProt P03951). The assay is described as follows: Factor XIa Assay. The class given is biochemical. The note with it: substrate Z-Gly-Pro-Arg-AFC 100 μM, 40 pM enzyme, pH 7.4; read-out: FXIa IC50. The procedure: as §1, with “Coagulation Factor XIa” for “Kallikrein”, “The results of this assay are expressed as the inhibitory constant, Ki.” left out
Factor XIa determinations were made in 50 mM HEPES buffer at pH 7.4 containing 150 mM NaCl, 5 mM CaCl2, and 0.1% PEG 8000 (polyethylene glycol; JT Baker or Fisher Scientific). Determinations were made using purified human Factor XIa at a final concentration of 40 pM (Sekisui Diagnostics) and the synthetic substrate, Z-Gly-Pro-Arg-AFC, TFA salt (Sigma #C0980) at a concentration of 100 μM.
Times required to achieve equilibration between enzyme and inhibitor were determined in control experiments. Initial velocities of product formation in the absence (Vo) or presence of inhibitor (Vi) were measured. Assuming competitive inhibition, and that unity is negligible compared Km/[S], [I]/e, and [I]/e (where [S], [I], and e respectively represent the total concentrations, of substrate, inhibitor and enzyme), the equilibrium constant (Ki) for dissociation of the inhibitor from the enzyme can be obtained from the dependence of Vo/Vi on [I] shown in the following equation.

Sequence of purified human Factor XIa (P03951 388-625): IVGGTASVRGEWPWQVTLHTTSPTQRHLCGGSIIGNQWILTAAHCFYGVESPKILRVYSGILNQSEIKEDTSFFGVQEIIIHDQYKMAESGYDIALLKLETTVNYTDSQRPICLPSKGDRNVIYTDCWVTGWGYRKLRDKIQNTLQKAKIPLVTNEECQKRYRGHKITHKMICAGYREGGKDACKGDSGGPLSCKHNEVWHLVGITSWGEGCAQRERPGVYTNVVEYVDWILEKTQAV
Sequence of purified human Factor XIa (P03951 19-387 partner): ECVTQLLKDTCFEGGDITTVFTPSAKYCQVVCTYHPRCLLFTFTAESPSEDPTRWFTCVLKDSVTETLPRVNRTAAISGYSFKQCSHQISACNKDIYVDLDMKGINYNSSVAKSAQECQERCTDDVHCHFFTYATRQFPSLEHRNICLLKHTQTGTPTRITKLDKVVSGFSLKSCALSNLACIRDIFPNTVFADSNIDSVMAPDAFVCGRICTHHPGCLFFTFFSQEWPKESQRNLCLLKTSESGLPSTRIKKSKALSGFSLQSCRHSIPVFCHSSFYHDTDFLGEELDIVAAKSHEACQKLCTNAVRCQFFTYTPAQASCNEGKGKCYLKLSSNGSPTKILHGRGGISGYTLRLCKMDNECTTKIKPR
Sequence of purified Human plasma kallikrein (P03952 391-638): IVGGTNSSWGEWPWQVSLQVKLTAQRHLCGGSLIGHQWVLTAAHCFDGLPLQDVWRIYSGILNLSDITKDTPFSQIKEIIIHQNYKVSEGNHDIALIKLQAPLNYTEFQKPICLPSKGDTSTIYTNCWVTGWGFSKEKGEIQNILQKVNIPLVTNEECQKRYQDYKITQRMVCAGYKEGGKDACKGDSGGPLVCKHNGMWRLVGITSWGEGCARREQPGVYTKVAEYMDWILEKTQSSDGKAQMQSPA
Sequence of purified Human plasma kallikrein (P03952 20-390 partner): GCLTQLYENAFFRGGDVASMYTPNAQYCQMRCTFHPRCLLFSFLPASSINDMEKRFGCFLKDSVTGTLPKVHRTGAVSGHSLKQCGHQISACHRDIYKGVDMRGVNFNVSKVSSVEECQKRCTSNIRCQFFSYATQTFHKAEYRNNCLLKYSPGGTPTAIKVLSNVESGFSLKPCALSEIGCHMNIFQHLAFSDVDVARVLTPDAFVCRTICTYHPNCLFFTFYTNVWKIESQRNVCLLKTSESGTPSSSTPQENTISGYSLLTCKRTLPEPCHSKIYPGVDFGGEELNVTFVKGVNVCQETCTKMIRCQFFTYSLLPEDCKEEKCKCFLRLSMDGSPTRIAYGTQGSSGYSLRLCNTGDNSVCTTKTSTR

`O=C(NC1CCC1)N1CCC(c2cccc([C@H](Cc3ccccc3)c3ccc(-c4cc(Cl)ccc4-n4cnnn4)c[n+]3[O-])c2)CC1` [Example 51, 4-{3-[(1S)-1-{5-[5-chloro-2-(1H-tetrazol-1-yl)phenyl]-1-oxidopyridin-2-yl}-2-phenylethyl]phenyl}-N-cyclobutyl piperidine-1-carboxamide]: the results for the IC50 in assay [1] and in assay [2] were 614 nM and 13.2 nM, respectively.
For `CCNC(=O)N1CCC(c2cccc(C(Cc3ccccc3)c3ccc(-c4cc(Cl)ccc4-n4cnnn4)c[n+]3[O-])c2)CC1` (racemic) [Example 24, 4-[3-(1-{5-[5-chloro-2-(1H-tetrazol-1-yl)phenyl]-1-oxidopyridin-2-yl}-2-phenylethyl)phenyl]-N-ethylpiperidine-1-carboxamide] the same measures were 714 nM and 19 nM.
On to `O=C(C1CCO1)N1CCC(c2cccc([C@H](Cc3ccccc3)c3ccc(-c4cc(Cl)ccc4-n4cnnn4)c[n+]3[O-])c2)CC1` (stereo partly drawn) [Example 35, 5-[5-chloro-2-(1H-tetrazol-1-yl)phenyl]-2-[(1S)-1-{3-[1-(oxetan-2-ylcarbonyl)piperidin-4-yl]phenyl}-2-phenylethyl] pyridine 1-oxide], for which the IC50 in assay [1] worked out at 403 nM; in assay [2], 12.2 nM.
For `O=C(O)c1cccc(-c2cccc(C(CC3CC3)c3ccc(-c4cc(Cl)ccc4-n4cnnn4)c[n+]3[O-])c2)c1` (centres unmarked) [Example 18] the same measures were 250 nM and 12 nM.
For `O=C(O)c1cccc(-c2cc(F)cc([C@H](Cc3ccccc3)c3ccc(-c4cc(Cl)ccc4-n4cnnn4)c[n+]3[O-])c2)c1` [Example 14] the same measures were 19.1 nM and 0.301 nM.
For `O=C(O)c1cccc(-c2cccc(C(CC3CC3)c3ccc(-c4cc(Cl)ccc4-n4cnnn4)c[n+]3[O-])c2)c1` (racemic) [Example 17] the same measures were 543 nM and 12 nM.
For the compound `COCC(=O)N1CCC(c2cccc([C@H](Cc3ccccc3)c3ccc(-c4cc(Cl)ccc4-n4cnnn4)c[n+]3[O-])c2)CC1` [Example 36, 5-[5-chloro-2-(1H-tetrazol-1-yl)phenyl]-2-[(1S)-1-{3-[1-(methoxyacetyl)piperidin-4-yl]phenyl}-2-phenylethyl] pyridine 1-oxide], the IC50 was 382 nM in assay [1] and 8.17 nM in assay [2].

A word on the IC50: it is the concentration at which inhibition is half-maximal.
